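48-hour exposure; five concentrations; linearly interpolated endpoints. The concentration for 50% growth inhibition is given as GI50. TGI: concentration producing complete growth inhibition.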 Where a SMILES comes first, the peptide text is derived from it. [ ]: non-standard residue; d: D form. The star is where a group is joined. ξ: configuration not given here. ξNMeF = CNC(Cc1ccccc1)C(=O)O; NMeV = CN[C@H](C(=O)O)C(C)C; Boc = CC(C)(C)OC(=O)*; OBn = c1ccc(CO*)cc1
Experiments:
Experiment in all cases: NCI tumour cell line growth inhibition, 48 h
LXFL 529 NSCLC = system: LXFL 529 NSCLC
NCI-H226 lung = system: NCI-H226 lung
HCT-15 colon = system: HCT-15 colon
DMS 114 small cell lung = system: DMS 114 small cell lung
RXF-631 renal = system: RXF-631 renal
DMS 273 small cell lung = system: DMS 273 small cell lung
XF 498 CNS = system: XF 498 CNS
SNB-78 CNS = system: SNB-78 CNS
DLD-1 colon = system: DLD-1 colon
SK-MEL-2 melanoma = system: SK-MEL-2 melanoma
T-47D breast = system: T-47D breast
CCRF-CEM leukemia = system: CCRF-CEM leukemia
KM20L2 colon = system: KM20L2 colon
M19-MEL melanoma = system: M19-MEL melanoma
HOP-18 NSCLC = system: HOP-18 NSCLC
A549 NSCLC = system: A549 NSCLC
P388 leukemia = system: P388 leukemia
SN12K1 renal = system: SN12K1 renal
P388/ADR leukemia = system: P388/ADR leukemia

SMILES	TGI (LXFL 529 NSCLC) [µM]	TGI (NCI-H226 lung) [µM]	TGI (HCT-15 colon) [µM]	TGI (DMS 114 small cell lung) [µM]	TGI (RXF-631 renal) [µM]	TGI (DMS 273 small cell lung) [µM]	TGI (XF 498 CNS) [µM]	TGI (SNB-78 CNS) [µM]	TGI (DLD-1 colon) [µM]	TGI (SK-MEL-2 melanoma) [µM]	TGI (T-47D breast) [µM]	TGI (CCRF-CEM leukemia) [µM]	TGI (KM20L2 colon) [µM]	TGI (M19-MEL melanoma) [µM]	TGI (HOP-18 NSCLC) [µM]	TGI (A549 NSCLC) [µM]	TGI (P388 leukemia) [µM]	TGI (SN12K1 renal) [µM]	TGI (P388/ADR leukemia) [µM]	GI50 (SK-MEL-2 melanoma) [µM]
CN(C)[C@@H]1C(=O)C(C(=O)NCNc2nc3n[nH]nc3c(=O)[nH]2)=C(O)[C@@]2(O)C(=O)C3=C(O)c4c(O)cccc4[C@@](C)(O)[C@H]3C[C@@H]12	> 100	56.9	> 100	13.8	> 47.5	> 100	> 26.9	> 100	> 77.8	3.09	> 100	> 17.7	> 68.9	15	> 100	> 100	–	–	–	–
O=C(O)CCC(NC(=O)c1ccc(Nc2cnc3cc(C(F)(F)F)ccc3n2)cc1)C(=O)O (centres undefined)	–	> 100	> 100	> 100	–	> 100	> 100	> 100	> 100	> 100	–	> 100	> 100	–	> 100	> 100	> 100	> 100	> 100	–
O=C1c2ccccc2C(=O)N1CCCOCc1c[nH]c(=O)[nH]c1=O	> 100	> 100	> 100	> 100	> 100	> 100	> 100	–	> 100	> 100	–	> 100	> 100	> 100	> 100	> 100	–	–	–	–
C=CCCCCCCCCCP(=O)(c1ccccc1)c1ccc2c(c1)OCCOCCOCCOCCO2 (centres undefined)	–	33.9	28.2	–	–	29.1	32.7	34.5	27.3	31.9	–	40	27.1	33	31.8	28.1	–	–	–	–
Cc1ccc(Nc2cccc3c2C(=O)c2cccc(Nc4ccc(C)cc4S(=O)(=O)O)c2C3=O)c(S(=O)(=O)O)c1	> 100	> 100	> 100	> 100	> 100	> 100	–	> 100	> 100	> 100	–	> 100	> 100	> 100	> 100	> 100	–	–	–	–
CCN(CC)CCNc1ccc2ncn3c4ccc(OC)cc4c(=O)c1c23	20	13.7	15.1	25.2	15.8	14.9	25.1	30.9	20	25.4	40.5	19	8.76	20.4	62	9.71	–	–	–	–
Cc1cc(O)c2c(c1)C(=O)c1c(c(O)cc(O)c1-c1c(O)cc(O)c3c1C(=O)c1cc(C)cc(O)c1C3=O)C2=O	–	50	38	63	–	30.3	53.4	105	59.5	40.7	–	48.3	52.2	59.4	39.9	65.9	63	39.9	99.8	–
O=C(NN1C(=O)CS(=O)(=O)C1c1ccc(Cl)c(Cl)c1)c1ccncc1 (centres undefined)	–	> 100	> 100	> 100	–	> 31.6	> 100	> 100	> 100	> 100	–	> 86.1	> 100	> 100	> 100	> 100	> 60.1	> 100	> 74.8	–
COc1cccc(NC(=O)CSc2nnc(Cc3ccccc3)o2)c1	> 100	> 100	> 100	> 100	–	> 100	–	> 100	> 100	> 100	–	> 100	> 100	> 100	> 100	> 100	–	–	–	–
CCN(CC)C(=O)CCn1cc(F)c(=O)[nH]c1=O	> 100	> 100	> 100	> 100	–	> 100	> 100	> 100	–	> 100	–	> 100	> 100	> 100	–	> 100	–	–	–	–
CC(C)[C@@H](C(=O)N(C)[C@H](C(=O)N1CCC[C@H]1C(=O)OCc1ccccc1)C(C)C)N(C)C(=O)C(Cc1ccccc1)N(C)C(=O)[C@H](NC(=O)OC(C)(C)C)C(C)C (some centres undefined) (Boc-[dV][ξNMeF][NMeV][NMeV]P-OBn)	> 100	> 100	> 31.6	> 31.6	–	> 31.6	27.9	> 31.6	> 31.6	> 31.6	–	> 31.6	> 31.6	> 31.6	> 100	> 31.6	–	–	–	–
C=C1CC(OC)(C(OC)C(=O)N[C@H]2OCO[C@H]3C2O[C@H](C[C@@H](COC)OC)C(C)(C)C3OC)O[C@H](C)[C@@H]1C (some centres undefined)	–	7.73	8.25	13.9	–	3.79	2.54	4.81	9.33	14.9	–	1.43	> 47	5.93	23.9	5.24	0.691	15.2	1.4	–
COc1ccc2c(c1)CCc1c-2[nH]c2cc3c(cc2c1=O)OCO3	> 100	–	> 100	–	–	> 100	> 100	> 100	> 100	> 100	–	> 100	–	> 100	> 100	> 100	–	–	–	–
CNC(=O)C(C)Oc1ccc(OCC2CCCCC2)cc1 (centres undefined)	> 100	> 100	> 100	> 100	–	> 100	–	> 100	> 100	> 100	–	> 100	–	> 100	> 100	> 100	–	–	–	–
CC(=O)[O-].CC(=O)[O-].O=C(N/N=C/c1cc(Cl)cc(Cl)c1[OH2+])c1ccncc1.[Mn+2]	–	12.1	25.1	–	–	–	–	–	–	8.38	–	2.15	16	–	–	79.7	–	–	–	3.85
Cc1cc(=O)oc2c1cc1ccc3cccc4ccc2c1c34	> 100	> 100	> 100	–	–	–	–	> 100	> 100	> 100	–	> 100	> 100	> 100	> 100	–	–	–	–	–
CN(c1ccccc1)c1cc2ccccc2nn1	> 100	> 100	> 100	> 100	> 100	> 100	> 100	> 100	> 100	> 100	–	> 100	> 100	> 100	> 100	> 100	–	–	–	–
CC(C)(C)OC(=O)N(O)[C@@H]1CC[C@H](n2cnc3c(N)ncnc32)C1	–	> 100	> 100	–	–	–	–	–	–	> 100	> 100	> 100	–	–	–	> 100	–	–	–	–
O=C(c1cscc1CCc1ccccc1)c1cscc1CCc1ccccc1	–	> 100	> 100	–	–	–	–	–	–	> 100	> 100	> 100	–	–	–	> 100	–	–	–	–
Nc1nc(SCC(=O)c2ccccc2)c2[nH]cnc2n1	–	> 100	> 100	> 100	–	> 100	> 100	–	> 100	> 100	–	> 100	> 100	> 100	> 100	> 100	–	–	–	–
CCOC(=O)[C@@H]1[C@@H](c2ccccc2)N(C)O[C@@]1(c1ccccc1)C(F)(F)F	–	> 100	> 100	–	–	–	–	–	–	> 100	> 100	60.7	–	–	–	> 100	–	–	–	–

Reference: PubChem BioAssay (NCI)
